According to ChEMBL document CHEMBL2321761, “Discovery of novel dual inhibitors of the wild-type and the most prevalent drug-resistant mutant, S31N, of the M2 proton channel from influenza A virus” (J Med Chem, 2013):
Calls of active or inactive are those of the source. No cut-off for these calls is given here.

How the values were obtained:
Influenza A virus [1] = assay: Antiviral activity against influenza A virus A/WSN/33-S31N infected in dog MDCK cells after 2 days by naphthalene black dye staining based plaque reduction assay; type: functional, organism-based
Influenza A virus [2] = assay: Antiviral activity against wild type influenza A virus A/WSN/33-N31S infected in dog MDCK cells at 1 uM after 2 days by naphthalene black dye staining based plaque reduction assay; type: functional, organism-based

## Oc1ccc(CNC23CC4CC(CC(C4)C2)C3)c(O)c1
Influenza A virus [1]
  EC50: 3.2 µM
Influenza A virus [2]
  inhibition: Active

## NC12CC3CC(CC(C3)C1)C2 [AMANTADINE]
Influenza A virus [1]
  EC50: 22.5 µM
